Experiment [1] has as its system [^3 H]5-HT uptake. The experiment is described as follows: Synaptosomal [^3 H]5-HT uptake inhibition. It is filed as biochemical, rat. Particulars: for IC50: Table 2, nM ± SD, whole rat brain minus cerebellum synaptosomes. The procedure: (§1) Synaptosomal uptake assays were carried out as described (Rothman et al. (1993), supra). Briefly, synaptosomes were prepared by homogenization of rat striatum (for [^3 H]DA reuptake) or whole rat brain minus cerebellum (for [^3 H]5-HT reuptake) in ice-cold 10% sucrose, using a Potter-Elvehjem homogenizer. After a 1000×g centrifugation for 10 min at 4° C., the supernatants were retained on ice. The uptake assays were initiated by the addition of 100 μl of synaptosomes to 12×75 mm polystyrene test tubes, which were prefilled with 750 μl of [^3 H]ligand (2 nM [^3 H]5-HT or 5 nM [^3 H]DA) in a Krebs-phosphate buffer (pH 7.4), which contained ascorbic acid (1 mg/ml) and pargyline (50 μM) (buffer), 100 μl of test drugs made up in buffer containing 1 mg/ml bovine serum albumin, and 50 μl of buffer. The [^3 H]5-HT reuptake experiments were conducted in the presence of 100 nM nomifensine and […] GBR12935 in order to block any possible reuptake into NE and DA nerve terminals. […] The nonspecific uptake of each [^3 H]ligand was measured by incubations in the presence of 1 μM GBR12909 ([^3 H]DA) and 10 μM fluoxetine ([^3 H]5-HT). The incubations were terminated after a 15 min ([^3 H]DA) or 30 min ([^3 H]5-HT) incubation at 25° C. by adding 4 ml of wash buffer (10 mM TRIS-HCl, pH 7.4 containing 0.9% NaCl at 25° C.), followed by rapid filtration over Whatman GF/B filters and one additional wash cycle. […] The Krebs-phosphate buffer contained 154.5 mM NaCl, 2.9 mM KCl, 1.1 mM CaCl2, 0.83 mM MgCl2 and 5 mM glucose. The tritium retained on the filters was counted, in a Taurus beta counter, after an overnight extraction into ICN Cytoscint cocktail.
(§2) Inhibition curves were fit to the two parameter logistic equation for the best-fit estimates of the IC50 using nonlinear least squares curve fitting methods as previously described (Rothman et al. (1993), supra); Jones, S. M. and Rogawski, M. A. Mol. Neuropharmacol. 2: 303-310 (1992)).
(§3) Synaptosomal uptake and ligand binding assays were conducted as described
(§4) above. Preliminary experiments were conducted to determine the doserange
(§5) Each [^3 H] ligand was displaced
(§6) by 10 concentrations of test drug. The data of two experiments were
(§7) pooled, and fit to the two parameter logistic equation for the bestfit
(§8) estimates of the IC50 reported above.

For experiment [2], the target named is PCP site 1. The experiment is described as follows: [^3 H](+)-MK801 binding to PCP site 1. Set-up: species or system guinea pig. The procedure:
Large batches of frozen membranes were prepared with minor modifications of published procedures (Rothman, et al. (1989), supra). Twenty to thirty frozen guinea pig brains with cerebellum were thawed for 15 minutes and homogenized with a Polytron in ice-cold 5 mM Tris-HCl, pH 8.0 (10 ml/brain). The homogenate was centrifuged at 37,000×g for 10 minutes, and the pellet was washed by resuspension in the same volume of buffer followed by recentrifugation. The pellets were resuspended in an equal volume of 5 mM Tris-HCl, pH 8.0, and the concentration was adjusted to 50 mM by the addition of 1M Tris-HCl, pH 8.0. The homogenate was centrifuged for 10 min at 37,000×g. The pellets were then washed three times by resuspension and centrifugation using 50 mM Tris-HCl, pH 8.0. The final pellets were resuspended in the Tris-HCl buffer (0.5 ml/brain), pooled and 1 ml aliquots were distributed to microfuge tubes, which were stored at -70° for assay. […]
as §2
^a The binding assays for PCP (site 2) and PCP (site 1) were conducte
as previously reported (Rothman, R. B., et al., In: Multiple Sigma and PC
Receptor Ligands: Mechanisms for Neuromodulation and Protection 307-330
(Domino, E. F. and Kamenka, J. M., eds., 1992) using [^3 H]TCP in the
presence of (+)MK801 for site 2 and [^3 HMK801 for site 1 except that

The subject of experiment [3] is [^3 H]DA uptake. The experiment is described as follows: Synaptosomal [^3 H]DA uptake inhibition. Particulars: for IC50: Table 2, nM ± SD, rat striatum synaptosomes. In kind it is biochemical, rat. The procedure:
as §1, §2, §3, §4, §5, §6, §7, §8

Experiment [4] deals with T1, DA transporter (Rattus norvegicus, UniProt P23977).
T1 construct: Striata were dissected using glass manipulators; from tissue; host or cells: striatum of male Sprague-Dawley rats, membranes
The experiment is described as follows: [^3 H]CFT binding to DA transporter. The procedure: For [^3 H]J2B-carbomethoxy-3B-(4-fluorophenyl)-tropane (CFT, WIN35,428) binding assays, male Sprague-Dawley rats (200 to 300 gm) were anesthetized with C02 gas, and decapitated. Striata were dissected using glass manipulators, placed in small plastic containers, and then allowed to freeze by placing the container in dry ice.
Striata collected in this way were stored at […]. On the day of the assay, each striatum was placed in ice-cold binding buffer (BB: 55.2 mM sodium phosphate buffer, pH 7.4, 5 ml per caudate), and homogenized while still frozen with a Polytron. The homogenate was centrifuged for 10 min at 30,000×g, and the pellet was resuspended in an equal volume of BB. The homogenate was recentrifuged, and the pellet was resuspended in an equal volume of BB. An aliquot was saved for determination of protein (0.5 ml), and the remaining homogenate was brought up to a final volume of 22 ml/striatum using ice-cold BB. […] Aliquots of membranes were then used in the radioligand binding assays.
The [^3 H]nisoxetine assay for the norepinephrine transporter (NE) was carried out as described (Rothman, et al. (1993), supra; Tejani-Butt, S. M., et al. Eur. J. Pharmacol. 191:239-243 (1990)). DA transporters were labeled with [^3 H)CFT with minor modifications of published protocols (Madras, B. K., et al. Mol. Pharmacol. 36: 518-524 (1989)). Briefly, 12×75 mm polystyrene test tubes were prefilled with 100 μl of drug, 100 μl of radiolabeled (1 nM final concentration), 50 μl of buffer. Drugs were dissolved in BB containing 1 mg/ml bovine serum albumin (BB/BSA). Radioligands were made to a final concentration in a protease inhibitor cocktail containing 1 mg/ml BSA {BB containing chymostatin (25 μg/ml), leupeptin (25 μg/ml), EDTA (100 μM), and EGTA (100 μM)}. The assay was initiated by the addition of 750 μl of membranes, prepared as described above. Brandel cell harvesters were used to filter the samples over Whatman GF/B filters, which were presoaked in wash buffer (ice-cold 10 mM TRIS-HCL, pH 7.4 containing 150 mM NaCl) containing 2% polyethylenimine. In this procedure, samples were filtered and then washed with two 4 ml aliquots of ice-cold wash buffer. Nonspecific binding was defined using 10 μM (final concentration) GBR12909. All subsequent steps were identical to those described above.
as §2, §3
Preliminary experiments were conducted to determine the doserange
The data of two experiments were
as §7

Setting [5] is: Table 2, nM ± SD, rat striatum, read-out: [^3 H]CFT Binding IC50.

“Also recorded” adds a separate entry of the source. Where two headings read alike, the source gives them in different places.

T1 sequence (P23977 whole entry): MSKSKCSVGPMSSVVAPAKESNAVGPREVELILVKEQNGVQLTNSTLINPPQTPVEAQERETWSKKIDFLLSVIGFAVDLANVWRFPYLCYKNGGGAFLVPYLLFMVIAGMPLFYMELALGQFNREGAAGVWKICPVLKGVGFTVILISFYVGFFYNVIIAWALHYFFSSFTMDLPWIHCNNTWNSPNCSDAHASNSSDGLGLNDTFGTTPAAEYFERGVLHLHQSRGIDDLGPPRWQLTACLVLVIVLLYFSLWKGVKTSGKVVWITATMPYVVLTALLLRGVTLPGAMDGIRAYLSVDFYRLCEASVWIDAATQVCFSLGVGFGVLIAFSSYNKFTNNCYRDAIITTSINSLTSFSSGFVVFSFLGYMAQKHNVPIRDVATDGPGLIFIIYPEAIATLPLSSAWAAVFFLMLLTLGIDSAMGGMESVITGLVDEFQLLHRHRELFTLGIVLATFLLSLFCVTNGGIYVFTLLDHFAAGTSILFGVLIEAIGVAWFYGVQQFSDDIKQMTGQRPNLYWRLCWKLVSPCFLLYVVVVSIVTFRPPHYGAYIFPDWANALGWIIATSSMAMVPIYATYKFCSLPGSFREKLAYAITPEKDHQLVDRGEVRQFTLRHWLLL

As a reminder, the IC50 is the concentration at which inhibition is half-maximal. Take `CN1[C@H](Cc2ccccc2)C[C@H]2Cc3ccccc3[C@H]21` (relative stereo) [RTI-4793-14, (2RS, 3aSR, 8aRS)-1,2,3a,8,8a-Hexahydro-2-benzyl-1-methyl-indeno[1,2-b]pyrrole]: the “[^3 H]5-HT uptake inhibition in words” value in experiment [1] is given as “moderate potency”. In addition, the IC50 in experiment [1] is 1020 ± 72 nM; in experiment [2] it was more than 36000 nM; in experiment [2] (Table 1, [^3 H]MK801), more than 20000 nM; in experiment [2] (Table 2, nM ± SD) it was more than 36000 nM; in experiment [2] (Table 3, guinea pig membranes), more than 2000 nM; in experiment [3], 547 ± 20 nM. Besides, the IC50 in experiment [4] (setting [5]) amounted to 850 ± 101 nM. In addition, the “affinity for PCP site 1 in words” value in experiment [2] is “low affinity”. Moreover, the “[^3 H]DA uptake inhibition in words” value in experiment [3] is “moderate potency”. Moreover, the “[^3 H]CFT binding inhibition in words” value in experiment [4] is “moderate potency”.

With `C[C@]12N[C@H](Cc3ccccc31)c1ccccc12` [(+)-MK801], in experiment [1], the “[^3 H]5-HT uptake inhibition in words” value is reported as “negligible affinity”. Moreover, the IC50 was more than 4700 nM in experiment [1]; 4.58 ± 0.19 nM in experiment [2] (Table 1, [^3 H]MK801); 4.58 ± 0.19 nM in experiment [2] (Table 2, nM ± SD); more than 10000 nM in experiment [3]; more than 15000 nM in experiment [4] (setting [5]). Moreover, in experiment [2], the “affinity for PCP site 1 in words” value is given as “high affinity”. Besides, the “greater potency at PCP site 1 than PCP” value in experiment [2] (versus PCP) stood at 25 fold. The “[^3 H]DA uptake inhibition in words” value in experiment [3] was “negligible affinity”. The “[^3 H]CFT binding inhibition in words” value in experiment [4] is listed as “negligible affinity”.

On to `CNC1CC(c2ccc(Cl)c(Cl)c2)c2ccccc21` (centres unmarked) [Indatraline], for which the “[^3 H]5-HT uptake inhibition in words” value in experiment [1] is “potently inhibited; also recorded: potent inhibitor”. The IC50 is 4.49 ± 0.21 nM in experiment [1]; more than 100000 nM in experiment [2]; more than 100000 nM in experiment [2] (Table 2, nM ± SD); 3.23 ± 0.45 nM in experiment [3]. Moreover, in experiment [2], the “affinity for PCP site 1 in words” value is reported as “negligible affinity”. In addition, in experiment [3], the “[^3 H]DA uptake inhibition in words” value is given as “potently inhibited; also recorded: potent inhibitor”. For the same compound, the “[^3 H]CFT binding inhibition in words” value in experiment [4] is given as “potently inhibited; also recorded: potent inhibitor”.

As to `c1ccc(C2(N3CCCCC3)CCCCC2)cc1` [PCP, phencyclidine], the IC50 is 1420 nM in experiment [1]; 117 ± 3 nM in experiment [2] (Table 1, [^3 H]MK801); 117 ± 3 nM in experiment [2] (Table 2, nM ± SD); 347 nM in experiment [3]; more than 1500 nM in experiment [4]. In addition, the “[^3 H]CFT binding inhibition in words” value in experiment [4] is “lower affinity”.

The record behind these values is patent publication US5747503A, “Selective inhibitors of biogenic amine transporters” (priority 1996, dated 1998).
